Like-named read-outs stand apart in the source and are kept apart here. Square brackets hold non-standard residues; d marks the D form. Peptide text beside a SMILES is read from it. Mpa = O=C(O)CCS
What was measured:
[1] = tested on: thrombospondin binding to heparin; assay: Inhibition of 125I-thrombospondin binding to immobilized heparin-BSA; parameters: species or system human; settings: for inhibition of thrombospondin binding to heparin, in words: free peptide
Method: (§1) The peptides were tested as inhibitors of laminin, thrombospondin or apolipoprotein E binding to a heparin-bovine serum albumen conjugate or to a sulfatide in a solid phase assay essentially following the procedure described in Zabrenetzky et al., Cancer Res., Vol. 50, pages 5937-5942 (1990). Sulfatide (0.2 μg/well for thrombospondin binding, 0.6 μg/well for laminin binding) was immobilized in a mixture of 50 ng of phosphatidyl choline, and 30 ng of cholesterol on polyvinyl chloride microtiter plates. Heparin-BSA (0.2 μg/well) was absorbed onto polyvinyl chloride microtiter plate wells by incubation of 50 μl of Dulbecco's PBS for 2 h at 37°. The wells were emptied and filled with 50 mM tris, pH 7.8 containing 150 mM NaCl, 1 mM CaCl2, 0.025% NaN3, and 1% BSA. After 30 minutes, the wells were emptied and 30 μl of various concentrations of potential inhibitory peptides diluted in the same buffer or buffer alone and 30 μl of ^125 I-labeled laminin, thrombospondin or apolipoprotein E (0.2 μg/ml) were added to each well. After 3 hours at 4°, the wells were washed 6 times with 0.15M NaCl, cut from the plate and the bound radioactivity counted. FIGS. 1A-B and 2A-B show the level of thrombospondin binding to sulfatide and heparin-BSA, respectively, in the presence of increasing concetrations of the peptides listed. FIGS. 3 and 4A-B show the level of laminin binding to sulfatide and heparin-BSA, respectively, in the presence of increasing concentrations of the listed peptides.
Microtiter plate wells were coated with heparin-BSA. Heparin-BSA (0.2 μg/well) was adsorbed by incubation in 50 μl of Dulbecco's PBS for 2 h at 370. The wells were emptied, filled with tris-BSA, and incubated for 30 to 60 minutes. The buffer was removed, and labelled thrombospondin was added and incubated in the wells for 3 h at 40. The wells were emptied and washed 4 times with saline. The bottoms of the wells were cut from the plate and counted to quantify thrombospondin binding. Inhibition of thrombospondin binding was determined using peptides diluted in 30 μl of 50 mM tris buffer, pH 7.8, containing 110 mM NaCl, 1 mM CaCl2, 0.025% NaN3, and 1% BSA or buffer alone and 30 μl of ^125 I-labeled TSP (0.2 μg/ml).

[2] = Solubility; format: physicochemical
[3] = tested on: bovine endothelial cells; assay: Inhibition of bovine endothelial cell proliferation (Table 7); format: cell-based; settings: free peptide; read-out: IC50 Inhibitory Activity, Free Peptide
Method: Similar structure-function and epitope mapping studies were carried out with regard to inhibition of bovine endothelial cell proliferation. […] This may be due either to a lower tendency of the conjugates to stick to the microtiter wells or a greater tendency to disrupt binding of the cells to the substratum in the wells.
Endothelial cell proliferation was measured using the CELL TITER 96™ assay (Promega, Madison, Wis.). 5×10^3 cells were plated into each well of a 96-well culture plate in 0.5 or 5% FCS-containing medium together with the indicated concentrations of growth effectors. After 72 h, 15 μl of dye solution was added to each well, and the plates were incubated for an additional 4 h. Solubilization solution was added, and absorbance at 570 nm was determined after 24 h as described by the manufacturer.

[4] = molecular target: basic fibroblast growth factor (FGF-2) binding to heparin; assay: Inhibition of 125I-bFGF binding to heparin-BSA conjugate; settings: retro-inverso peptides; read-out: IC50 for Inhibition of Binding
Method: Binding of ^125 I-bFGF to heparin was determined using an immobilized heparin-BSA conjugate as previously described (Guo, et al. (1992) Proc. Nat'l Acad. Sci. 89:3040-3044). ^125 I-bFGF, prepared as described by Neufeld, et al, (1985), J. Biol. Chem. 260:13860-13868, was added described above, and incubated for 2 hours at 25° C. Bound radioactivity was determined after washing and cutting the wells from the plate. FIGS. 40A, B and C show the inhibition of ^125 I-bFGF binding to heparin by a number of TSP peptide analogs.

[5] = tested on: A2058 melanoma cells; assay: 125I-laminin binding to A2058 melanoma cells; format: cell-based, human; settings: excess heparin
Method: (§2) Melanoma cells (1×10^5 in 0.2 ml) were incubated with 0.2 μg/ml labeled laminin alone or in the presence of 200 micrograms per ml of peptides from SEQ ID NO:1, SEQ ID NO:2, or SEQ ID NO:3, type-I repeats from thrombospondin (FIG. 5A). Melanoma cells were also incubated with labelled laminin or thrombospondin alone or in the presence of 10 μg/ml of peptides from the first (184, SEQ ID NO:1), second (185, SEQ ID NO:2 and 246, SEQ ID NO:19), or third type I repeat of thrombospondin (186, SEQ ID NO:3) or 1 μg/ml heparin (FIG. 5B). The cells were centrifuged through oil to separate the free laminin from the bound laminin followed by quantifying the radioactivity in the cell pellet by a gamma counter. The results are presented in FIGS. 5A and B, as a percent of control binding determined in the absence of peptide and is the mean of triplicate determinations±the standard deviation.
(§3) Melanoma cells (3×10^5 cells in 0.2 ml) were incubated with 0.2 μg/ml of labelled I^125 -thrombospondin alone or in the presence of increasing concentrations of heparin or a peptide having the sequence according to SEQ ID NO:1 or a combination of the two inhibitors. […]
(§4) A2058 melanoma cells were harvested as described above and suspended in Dulbecco's PBS containing 1 mg/ml BSA. […] The supernatant fluid was aspirated, and the bottom of the tube was cut and counted.

[6] = tested on: A2058 melanoma cells; assay: 125I-thrombospondin binding to A2058 melanoma cells; format: cell-based, human
Method: as §2, §3, §4

[7] = tested on: A2058 melanoma cells; assay: A2058 melanoma cell adhesion to peptides adsorbed on plastic; format: cell-based, human
Method: Human melanoma cell line A2058 (Todaro et al., Proc. Natl. Acad. Sci USA 77, 5258-5262 (1980)) was maintained by monolayer culture at 37° with 5% carbon dioxide in RPMI 1640 medium containing 10% fetal bovine serum. For attachment assays, cells were removed using trypsin, passaged at 10^4 cells/cm^2 and harvested between days 5 and 7. Attachment and spreading on thrombospondin-coated plastic was determined as previously described (Roberts et al., J. Cell Biol. 104, 131-139 (1987)). Inhibition was determined by adding the inhibitor diluted in 0.4 ml of bicarbonate-free RPMI 1640 medium, containing 1 mg/ml of bovine serum albumin (fatty acid free, Sigma), pH 7.3, to wells of a 24-well dish containing bacteriological polystyrene was coated with the indicated peptides at 200 μg/ml. Melanoma cells were harvested by incubation with phosphate buffered saline containing 2.5 mM EDTA for 20 minutes at 37°. The cells were centrifuged and viability (routinely >99%) was assessed by trypan blue exclusion. The cells were resuspended in medium and allowed to recover in suspension for 1 h. Melanoma cells (2×10^5 ) suspended in 100 μl of medium (approx 10^3 /mm^2) were added to each well and allowed to attach for 60 minutes at 37° C. in a humidified atmosphere.

[8] = molecular target: laminin binding to heparin; assay: Inhibition of 125I-laminin binding to heparin-BSA; parameters: species or system mouse; settings: Table 2, free peptide
Method: as §1

[9] = molecular target: thrombospondin binding to sulfatide; assay: Inhibition of 125I-thrombospondin binding to sulfatide; parameters: species or system human; settings: Table 1, free peptide
Method: as §1

[10] = molecular target: laminin binding to sulfatide; assay: Inhibition of 125I-laminin binding to sulfatide; parameters: species or system mouse; settings: Table 2, free peptide
Method: as §1

[11] = molecular target: apolipoprotein E binding to heparin; assay: Inhibition of 125I-apolipoprotein E binding to heparin-BSA; settings: Table 2, free peptide; read-out: IC50 Apo E Binding to Heparin
Method: as §1

[12] = tested on: MDA MB435 breast carcinoma cells; assay: MDA MB435 human breast carcinoma cell proliferation; format: cell-based; settings: free peptide
Method: Human breast carcinoma cells MDA MB435 (American Type Culture Collection) were grown in RPMI 1640 medium containing 10% fetal calf serum. Proliferation was determined as described in FIG. 18 and 44A, B and C.
Human breast carcinoma cells MDA MB435 (American Type Culture Collection) were grown in RPMI 1640 medium containing 10% fetal calf serum. Proliferation was determined in the presence of 0.5% fetal calf serum and bFGF as described in FIG. 19.

[13] = retro-inverso peptides, free, read-out: IC50 Inhibitory Activity, Free Peptide
[14] = Table 1, free peptide, read-out: IC50 Heparin Binding, inhibition of 125I-thrombospondin binding

With `CC(=O)N[C@@H](CCCCN)C(=O)N[C@@H](CCCNC(=N)N)C(=O)N[C@@H](C)C(=O)N[C@@H](CCCCN)C(=O)N[C@@H](C)C(=O)N[C@@H](C)C(=O)NCC(=O)NCC(=O)N[C@@H](Cc1c[nH]c2ccccc12)C(=O)N[C@@H](CO)C(=O)N[C@@H](Cc1c[nH]cn1)C(=O)N[C@@H](Cc1c[nH]c2ccccc12)C(=O)N[C@@H](C)C(=O)N[C@@H](CO)C(=O)N[C@@H](CS)C(N)=O` [acKRAKAAGGWSHWASCam] (Ac-KRAKAAGGWSHWASC-NH2) the “inhibition of thrombospondin binding to heparin, in words” value [1] was “good activity” and the solubility characteristics [2] was “good activity and solubility characteristics”.

In the case of `CC(=O)N[C@H](CS)C(=O)N[C@H](CO)C(=O)N[C@H](CO)C(=O)N[C@H](C)C(=O)N1CCC[C@@H]1C(=O)N[C@H](CO)C(=O)N[C@H](C)C(=O)N[C@H](Cc1c[nH]cn1)C(=O)N[C@H](CO)C(=O)N[C@H](C)C(=O)NCC(=O)NCC(=O)N[C@H](CC(=O)O)C(=O)N[C@H](CCC(N)=O)C(=O)N[C@H](CCCCN)C(=O)N[C@H](C)C(=O)N[C@H](CCCNC(=N)N)C(=O)N[C@H](CCCCN)C(N)=O` [Peptide 513, ri-amKRAKQDGGASHASPASSCac] (Ac-[dC][dS][dS][dA][dP][dS][dA][dH][dS][dA]GG[dD][dQ][dK][dA][dR][dK]-NH2), the IC50 [1, 13] is reported as 6.2 µM, the IC50 [3] is reported as 18 µM and the IC50 [4] is reported as 18 µM.

For heparin [reference compound], the “laminin binding resistant to inhibition” value [5] was “approximately 50%” and the “inhibition of thrombospondin binding to A2058 melanoma cells by heparin” value ([6]; heparin) was “approximately 90%”.

With “apolipoprotein E: recombinant apolipoprotein E, heparin-binding protein” the “inhibition of A2058 adhesion to the peptides” value ([7]; disks coated with 200 μg/ml peptide 185) was “inhibited adhesion”.

For `CC(C)[C@H](NC(=O)[C@H](CO)NC(=O)[C@@H](N)CS)C(=O)N[C@H](C(=O)N[C@@H](CS)C(=O)NCC(=O)O)[C@@H](C)O` [Peptide 187, CSVTCG] (H-CSVTCG-OH), the IC50 [8] was 3 µM, the IC50 [1, 14] was 6 µM and the “inhibition of thrombospondin binding to heparin, in words” value [1] was “active”. The IC50 [9] was 14 µM, the “promotion of melanoma cell adhesion, in words” value ([7]; peptide adsorbed on plastic) was “promoted significant cell adhesion above background” and the IC50 [10] was 3.9 µM. The IC50 [11] was 84 µM.

With `C[C@@H](O)[C@H](NC(=O)[C@H](CO)NC(=O)[C@H](CS)NC(=O)[C@H](CO)NC(=O)[C@@H](NC(=O)[C@H](Cc1c[nH]c2ccccc12)NC(=O)[C@H](CCC(=O)O)NC(=O)[C@H](CO)NC(=O)[C@H](Cc1c[nH]c2ccccc12)NC(=O)[C@@H]1CCCN1C(=O)[C@@H](N)CO)[C@@H](C)O)C(=O)N[C@@H](CO)C(=O)O` [Peptide 184, SPWSEWTSCSTS] (H-SPWSEWTSCSTS-OH) the IC50 [8] was 36 µM, the “inhibition of thrombospondin binding to A2058 melanoma cells, in words” value ([6]; dose dependent) was “inhibited” and the IC50 [1, 14] was 47 µM. It also gave an IC50 [9] of 14 µM, an IC50 [10] of 42 µM and an IC50 [11] of 4.2 µM.

In the case of `C[C@@H](NC(=O)CCS)C(=O)N[C@H](C)C(=O)N[C@H](Cc1c[nH]c2ccccc12)C(=O)N[C@H](Cc1c[nH]cn1)C(=O)N[C@H](CO)C(=O)N[C@H](Cc1c[nH]c2ccccc12)C(=O)NCC(=O)NCC(=O)N[C@H](C)C(=O)N[C@H](CCC(N)=O)C(=O)N[C@H](CCCCN)C(=O)N[C@H](C)C(=O)N[C@H](CCCNC(=N)N)C(=O)N[C@H](CCCCN)C(N)=O` [Peptide 483, ri-amKRAKQAGGWSHWAAtp] ([Mpa][dA][dA][dW][dH][dS][dW]GG[dA][dQ][dK][dA][dR][dK]-NH2), the IC50 [1, 13] is reported as 0.13 µM, the IC50 [3] is reported as 4 µM and the “inhibition of MDA MB435 proliferation, in words” value [12] is reported as “active”. For the same compound, the IC50 [4] was greater than 20 µM.

Source: patent publication US5770563A, “Heparin- and sulfatide binding peptides from the type I repeats of human thrombospondin and conjugates thereof” (The United States of America as represented by the …, priority 1995, dated 1998)
